{"source": "ChEMBL document CHEMBL4673260", "about": "“Pyridine alkaloids with activity in the central nervous system” (Bioorg Med Chem, 2020)", "key": {"[1]": {"target": "GABA-A receptor alpha-1/beta-1 (Bos taurus, UniProt P08219+P08220)", "sequence (P08220 whole entry)": "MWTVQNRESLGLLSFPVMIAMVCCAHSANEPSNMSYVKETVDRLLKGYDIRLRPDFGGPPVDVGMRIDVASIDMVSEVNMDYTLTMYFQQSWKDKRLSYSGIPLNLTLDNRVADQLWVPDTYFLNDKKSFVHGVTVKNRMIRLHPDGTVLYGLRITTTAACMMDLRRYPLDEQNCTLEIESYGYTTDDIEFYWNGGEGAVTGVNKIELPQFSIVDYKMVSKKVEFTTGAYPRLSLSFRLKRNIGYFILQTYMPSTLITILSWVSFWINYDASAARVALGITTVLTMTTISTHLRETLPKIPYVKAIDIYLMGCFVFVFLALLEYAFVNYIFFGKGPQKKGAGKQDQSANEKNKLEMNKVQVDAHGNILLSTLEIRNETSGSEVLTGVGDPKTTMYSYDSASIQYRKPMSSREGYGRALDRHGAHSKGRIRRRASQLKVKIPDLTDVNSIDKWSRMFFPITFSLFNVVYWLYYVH", "sequence (P08219 whole entry)": "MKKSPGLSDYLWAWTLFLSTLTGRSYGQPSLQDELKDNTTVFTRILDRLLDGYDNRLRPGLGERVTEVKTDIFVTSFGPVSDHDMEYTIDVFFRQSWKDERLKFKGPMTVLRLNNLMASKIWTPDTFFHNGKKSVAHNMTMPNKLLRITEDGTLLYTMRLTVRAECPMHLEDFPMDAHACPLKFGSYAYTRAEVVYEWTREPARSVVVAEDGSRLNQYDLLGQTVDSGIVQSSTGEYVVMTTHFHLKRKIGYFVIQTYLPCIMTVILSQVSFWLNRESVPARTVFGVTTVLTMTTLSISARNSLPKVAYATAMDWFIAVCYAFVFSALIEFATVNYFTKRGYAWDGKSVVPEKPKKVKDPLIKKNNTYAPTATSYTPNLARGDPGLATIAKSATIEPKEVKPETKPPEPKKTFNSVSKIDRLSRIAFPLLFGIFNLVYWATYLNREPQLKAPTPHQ", "description": "Competitive inhibition of bovine GABAA alpha1beta1 expressed in Xenopus laevis oocytes"}, "Acetylcholinesterase": {"target": "Acetylcholinesterase (Bos taurus, UniProt P23795)", "sequence (P23795 whole entry)": "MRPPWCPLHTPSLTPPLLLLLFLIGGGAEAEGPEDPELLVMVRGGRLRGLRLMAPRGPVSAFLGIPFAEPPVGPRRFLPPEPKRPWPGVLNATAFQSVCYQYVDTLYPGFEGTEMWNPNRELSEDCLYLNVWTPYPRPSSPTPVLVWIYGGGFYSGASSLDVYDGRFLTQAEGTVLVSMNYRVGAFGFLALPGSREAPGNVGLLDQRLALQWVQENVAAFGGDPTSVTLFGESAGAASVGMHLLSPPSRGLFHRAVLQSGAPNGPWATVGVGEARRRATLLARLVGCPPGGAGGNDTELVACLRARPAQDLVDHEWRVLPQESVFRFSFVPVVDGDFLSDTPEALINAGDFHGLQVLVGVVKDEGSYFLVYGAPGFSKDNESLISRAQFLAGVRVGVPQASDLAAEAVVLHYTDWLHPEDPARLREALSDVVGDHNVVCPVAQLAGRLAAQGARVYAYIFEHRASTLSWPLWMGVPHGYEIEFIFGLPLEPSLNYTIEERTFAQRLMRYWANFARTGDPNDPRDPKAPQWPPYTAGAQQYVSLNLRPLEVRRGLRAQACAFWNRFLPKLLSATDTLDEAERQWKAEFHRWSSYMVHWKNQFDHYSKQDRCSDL"}, "[2]": {"assay": "Antagonist activity at 5HT1 in Wistar rat stomach fundus strip assessed as inhibition of 5-hydroxy-tryptamine evoked contraction preincubated for 20 mins followed by 5-HT addition", "format": "tissue-based"}, "[3]": {"target": "T1, Neuronal acetylcholine receptor; alpha4/beta2 (Rattus norvegicus, UniProt P09483+P12390)", "T1 sequence (P09483 whole entry)": "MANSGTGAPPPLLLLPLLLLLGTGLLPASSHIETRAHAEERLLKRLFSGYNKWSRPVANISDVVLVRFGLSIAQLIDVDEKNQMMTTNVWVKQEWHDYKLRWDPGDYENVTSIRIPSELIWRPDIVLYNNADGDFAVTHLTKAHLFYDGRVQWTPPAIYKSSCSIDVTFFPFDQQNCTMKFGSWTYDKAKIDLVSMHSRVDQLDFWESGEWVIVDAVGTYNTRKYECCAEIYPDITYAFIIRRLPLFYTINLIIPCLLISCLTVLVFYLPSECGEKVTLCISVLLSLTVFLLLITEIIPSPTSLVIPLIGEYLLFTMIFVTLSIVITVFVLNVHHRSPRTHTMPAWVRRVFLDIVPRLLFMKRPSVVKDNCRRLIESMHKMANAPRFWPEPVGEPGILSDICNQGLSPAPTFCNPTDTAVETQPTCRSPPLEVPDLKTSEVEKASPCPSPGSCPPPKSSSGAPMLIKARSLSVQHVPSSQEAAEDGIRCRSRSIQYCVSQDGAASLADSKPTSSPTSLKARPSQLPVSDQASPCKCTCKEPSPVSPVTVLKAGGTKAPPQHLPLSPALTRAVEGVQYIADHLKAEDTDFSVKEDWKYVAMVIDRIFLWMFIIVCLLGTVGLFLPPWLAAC", "T1 sequence (P12390 whole entry)": "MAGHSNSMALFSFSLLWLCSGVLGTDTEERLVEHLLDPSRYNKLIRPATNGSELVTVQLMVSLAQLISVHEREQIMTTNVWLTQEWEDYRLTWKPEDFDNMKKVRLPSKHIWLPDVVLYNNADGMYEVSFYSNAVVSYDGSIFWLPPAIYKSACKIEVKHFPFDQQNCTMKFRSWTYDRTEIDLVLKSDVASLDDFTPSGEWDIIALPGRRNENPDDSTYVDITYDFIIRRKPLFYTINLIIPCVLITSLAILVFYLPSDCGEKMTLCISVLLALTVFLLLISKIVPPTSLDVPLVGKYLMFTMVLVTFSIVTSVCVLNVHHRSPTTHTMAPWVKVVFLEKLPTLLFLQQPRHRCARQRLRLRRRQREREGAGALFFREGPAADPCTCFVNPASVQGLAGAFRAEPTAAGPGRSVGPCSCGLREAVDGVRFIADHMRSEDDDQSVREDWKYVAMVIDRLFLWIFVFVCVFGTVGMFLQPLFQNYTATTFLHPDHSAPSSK", "description": "Agonist activity at rat alpha4beta2 nAChR"}, "[4]": {"target": "Neuronal acetylcholine receptor; alpha4/beta2 (Rattus norvegicus) (UniProt P09483+P12390)", "assay": "Potency index, ratio of nicotine EC50 to test compound EC50 for agonist activity at rat alpha4beta2 nAChR", "format": "protein-complex assay"}, "[5]": {"target": "T1, Neuronal acetylcholine receptor; alpha4/beta2", "assay": "Binding affinity to rat alpha4beta2 nAChR", "format": "protein-complex assay"}, "[6]": {"target": "T2, Neuronal acetylcholine receptor subunit alpha-7 (Rattus norvegicus, UniProt Q05941)", "T2 sequence (Q05941 whole entry)": "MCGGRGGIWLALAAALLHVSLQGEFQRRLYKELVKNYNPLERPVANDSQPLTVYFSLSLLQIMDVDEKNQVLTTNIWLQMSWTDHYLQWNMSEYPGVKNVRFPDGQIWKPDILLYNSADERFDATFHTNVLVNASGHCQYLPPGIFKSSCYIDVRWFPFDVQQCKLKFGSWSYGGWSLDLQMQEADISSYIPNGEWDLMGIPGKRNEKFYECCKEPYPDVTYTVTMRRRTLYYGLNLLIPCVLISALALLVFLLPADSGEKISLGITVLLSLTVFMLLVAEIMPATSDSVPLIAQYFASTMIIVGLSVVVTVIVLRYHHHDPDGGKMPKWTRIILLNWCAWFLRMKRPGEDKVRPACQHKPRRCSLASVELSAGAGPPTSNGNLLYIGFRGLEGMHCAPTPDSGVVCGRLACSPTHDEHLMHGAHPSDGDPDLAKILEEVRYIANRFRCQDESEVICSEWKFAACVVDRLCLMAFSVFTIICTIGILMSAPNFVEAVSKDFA", "description": "Binding affinity to rat alpha7 nAChR"}, "[7]": {"target": "T2, Neuronal acetylcholine receptor subunit alpha-7", "remark": "listed apart in the source", "description": "Agonist activity at rat alpha7 nAChR"}, "[8]": {"target": "Neuronal acetylcholine receptor subunit alpha-7 (Rattus norvegicus) (UniProt Q05941)", "sequence (Q05941 whole entry)": "as above", "assay": "Potency index, ratio of nicotine EC50 to test compound EC50 for rat alpha7 nAChR"}, "[9]": {"target": "Neuronal acetylcholine receptor subunit alpha-7 (Rattus norvegicus) (UniProt Q05941)", "assay": "Potency index, ratio of nicotine Ki to test compound Ki for rat alpha7 nAChR"}, "[10]": {"assay": "Neuroprotective activity in rat neuron assessed as NMDA-induced intracellular calcium level at 1 ug/ml preincubated for 5 mins followed by glutamic acid stimulation and measured for 20 mins (reference value: 235%)", "format": "functional", "details": "time 25 min"}, "[11]": {"assay": "Neuroprotective activity in rat neuron assessed as glutamic acid induced intracellular calcium level at 0.5 ug/ml preincubated for 5 mins followed by glutamic acid stimulation and measured for 30 mins (reference value: 305%)", "format": "functional", "details": "time 35 min"}, "[12]": {"assay": "Neuroprotective activity in rat neuron assessed as glutamic acid induced intracellular calcium level at 1 ug/ml preincubated for 5 mins followed by glutamic acid stimulation and measured for 30 mins (reference value: 305%)", "format": "functional", "details": "time 35 min"}, "[13]": {"assay": "Neuroprotective activity in rat neuron assessed as glutamic acid induced intracellular calcium level at 3 ug/ml preincubated for 5 mins followed by glutamic acid stimulation and measured for 30 mins (reference value: 305%)", "format": "functional", "details": "time 35 min"}}, "data": [{"smiles": "C[n+]1cccc(C(=O)[O-])c1", "note": "[TRIGONELLINE]", "values": [{"measurement": "Ki", "setting": "[1]", "value": 0.013, "unit": "µM"}, {"measurement": "IC50", "setting": "Acetylcholinesterase", "value": 233, "unit": "µM"}]}, {"smiles": "O=C([O-])c1ccc[n+](CCOC(=O)c2cc(Br)c[nH]2)c1", "values": [{"measurement": "IC50", "setting": "[2]", "value": 80, "unit": "µM"}]}, {"smiles": "c1cncc(C2=NCCCC2)c1", "note": "[ANABASEINE]", "values": [{"measurement": "EC50", "setting": "[3]", "value": 4.2, "unit": "µM"}, {"measurement": "Ratio EC50", "setting": "[4]", "value": 3}, {"measurement": "Ki", "setting": "[5]", "value": 0.032, "unit": "µM"}, {"measurement": "Ki", "setting": "[6]", "value": 0.058, "unit": "µM"}, {"measurement": "EC50", "setting": "[7]", "value": 6.7, "unit": "µM"}, {"measurement": "Ratio EC50", "setting": "[8]", "value": 7}, {"measurement": "Ratio Ki", "setting": "[9]", "value": 7}]}, {"smiles": "O=C([O-])c1ccc[n+](CCOC(=O)c2ccc[nH]2)c1", "values": [{"measurement": "Activity", "setting": "[10]", "value": 63.5, "unit": "%"}, {"measurement": "Activity", "setting": "[11]", "value": 58.1, "unit": "%"}, {"measurement": "Activity", "setting": "[12]", "value": 65.4, "unit": "%"}, {"measurement": "Activity", "setting": "[13]", "value": 25.1, "unit": "%"}]}]}
